From PubChem BioAssay (NCI)
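Method: 48-hour compound exposure of cells in 96-well plates, five concentrations, linear interpolation of endpoints. TGI is the concentration that stops growth completely.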

Experiments:
Experiment in all cases: NCI anticancer screen, dose series, 48 h
SW-620 colon = system: SW-620 colon
HT29 colon = system: HT29 colon
CCRF-CEM leukemia = system: CCRF-CEM leukemia
SNB-19 CNS = system: SNB-19 CNS
786-0 renal = system: 786-0 renal
SK-MEL-2 melanoma = system: SK-MEL-2 melanoma
SK-MEL-5 melanoma = system: SK-MEL-5 melanoma
HCT-116 colon = system: HCT-116 colon
DMS 114 small cell lung = system: DMS 114 small cell lung
SF-268 CNS = system: SF-268 CNS

| Structure (SMILES) | TGI (SW-620 colon) [µM] | TGI (HT29 colon) [µM] | TGI (CCRF-CEM leukemia) [µM] | TGI (SNB-19 CNS) [µM] | TGI (786-0 renal) [µM] | TGI (SK-MEL-2 melanoma) [µM] | TGI (SK-MEL-5 melanoma) [µM] | TGI (HCT-116 colon) [µM] | TGI (DMS 114 small cell lung) [µM] | TGI (SF-268 CNS) [µM] |
| --- | --- | --- | --- | --- | --- | --- | --- | --- | --- | --- |
| O=c1cnn2c(n1)sc1ccc3ccccc3c12 | > 100 | > 100 | > 100 | > 100 | > 100 | > 100 | > 100 | > 100 | > 100 | > 100 |
| O=C1CCC2(CC1)SCCCS2 | > 100 | > 100 | > 100 | > 100 | > 100 | > 100 | > 100 | – | > 100 | > 100 |
| Cc1cc(Cl)cc2c1NC(=O)C2(O)C(C)C(=O)c1ccc(Cl)cc1 (stereo unspecified) | > 100 | > 100 | > 89.4 | > 100 | > 100 | > 100 | > 64.7 | > 100 | > 96.6 | > 100 |
| c1ccc(CN(Cn2cccn2)Cn2cccn2)nc1 | > 100 | – | > 100 | > 100 | > 100 | > 100 | > 100 | > 100 | > 100 | > 100 |
| Nc1c(-c2ccc(Cl)cc2Cl)[n+]([O-])c2ccccc2[n+]1[O-] | > 100 | > 100 | > 100 | > 100 | > 100 | > 100 | > 100 | – | > 100 | > 100 |
| Cc1cc(Cl)ccc1N=C1NC(=O)C(CC(=O)Nc2ccc(Cl)cc2Cl)S1 (stereo unspecified) | > 100 | > 100 | > 100 | > 100 | > 100 | > 100 | > 100 | – | > 100 | > 100 |
| CC12CCC[C@@](C)(C(=O)OC3OC(CO)C(O)C(O)C3O)[C@H]1CCC13CC4CC(OC4(CO)[C@H]1O)[C@@H]23 (stereo partly specified) | 31 | > 100 | > 100 | > 100 | > 100 | > 100 | > 100 | > 100 | 87.9 | > 100 |
| O=[N+]([O-])c1nccn1COCCF | > 100 | > 100 | > 100 | > 100 | > 100 | > 100 | > 100 | > 100 | > 100 | > 100 |
| OCC12C3C4C1C1C2C3C41CO (stereo unspecified) | > 100 | > 100 | > 100 | > 100 | > 100 | – | > 100 | – | > 100 | > 100 |
| CS(=O)(=O)Nc1ccc(Nc2c3ccccc3nc3ccccc23)cc1 | 19.9 | 20.5 | 26.4 | 20.3 | 17.8 | 16.1 | 10.4 | 15 | 17 | 24.5 |
| CC1=C(C(=O)Nc2ccc(Cl)c(Cl)c2)C(c2ccco2)C(C(=O)Nc2ccc(Cl)c(Cl)c2)=C(C)N1 | 28.3 | 29.9 | 27.7 | 25.8 | 25.8 | 26.3 | 26.9 | 21.5 | 22.2 | 23.9 |
| CC(C)(C)C(=O)C1CC(=O)c2ccccc2C1=O (stereo unspecified) | > 100 | – | > 100 | > 100 | > 100 | 33.1 | 72.8 | 46.2 | > 100 | 69.7 |
| CC1=C(C(=O)NCc2ccccc2)C(c2ccccc2[N+](=O)[O-])C(C(=O)NCc2ccccc2)=C(C)N1 | 28.1 | 28 | 44.7 | 27.5 | 25.4 | – | 25.9 | 19.7 | 29.8 | 22.9 |
| O=C(NO)C12C3C4C1C1C2C3C41C(=O)NO (stereo unspecified) | – | > 100 | > 100 | > 100 | > 100 | > 100 | > 100 | > 100 | > 100 | > 100 |
| Cc1cc(O)cc2c1O[C@@]1(C)CCC3[C@@]4(C)CC[C@H](O)C(C)(C)C4CC[C@@]3(C)[C@H]1C2 (stereo partly specified) | 23.5 | 28.2 | 7.08 | – | 4.72 | – | 19 | 16.1 | 19.9 | – |
| O=C1C(=O)C(Br)(Br)C(Br)=C1Br | 31.9 | 38.5 | 57.1 | > 100 | 32.1 | 33.7 | 29.4 | – | 40.8 | – |
| C1=Cc2nc1c(-c1ccncc1)c1ccc([n-]1)c(-c1ccncc1)c1nc(c(-c3ccncc3)c3ccc([n-]3)c2-c2ccncc2)C=C1.[Zn+2] | > 100 | > 100 | > 100 | > 100 | > 100 | > 100 | > 100 | > 100 | > 100 | > 100 |
